Assay results from ChEMBL document CHEMBL6120963, “Discovery of Novel PROTAC SIRT6 Degraders with Potent Efficacy against Hepatocellular Carcinoma” (J Med Chem, 2024).
Active and inactive are the calls of the source. The rule behind the calls is not given here.

Legend:
SK-HEP1 [1] = test: Cytotoxicity against human SK-HEP1 cells harboring SIRT6 siRNA incubated for 72 hrs by CCK8 assay; type: functional, cell-based
SK-HEP1 [2] = test: Inhibition of colony formation in human SK-HEP1 cells at 5 to 10 uM incubated for 10 to 14 days with replacement of medium containing compounds on every 3 days by crystal violet staining based analysis; type: functional, cell-based; details: dose 5-10 µM, time 10-14 day
[3] = molecular target: T1, Protein cereblon/NAD-dependent protein deacylase sirtuin-6 (Homo sapiens, UniProt Q8N6T7+Q96SW2); test: In vivo PROTAC activity of CRBN/SIRT6 in human SK-HEP1 cells xenografted in BALB/c nude mouse assessed as induction of SIRT6 degradation at 10 mg/kg treated for 28 to 30 days under irradiation (3 Gy); type: functional, organism-based; details: time 28-30 day
Target sequence in this assay (Q8N6T7 2-355 limits assumed): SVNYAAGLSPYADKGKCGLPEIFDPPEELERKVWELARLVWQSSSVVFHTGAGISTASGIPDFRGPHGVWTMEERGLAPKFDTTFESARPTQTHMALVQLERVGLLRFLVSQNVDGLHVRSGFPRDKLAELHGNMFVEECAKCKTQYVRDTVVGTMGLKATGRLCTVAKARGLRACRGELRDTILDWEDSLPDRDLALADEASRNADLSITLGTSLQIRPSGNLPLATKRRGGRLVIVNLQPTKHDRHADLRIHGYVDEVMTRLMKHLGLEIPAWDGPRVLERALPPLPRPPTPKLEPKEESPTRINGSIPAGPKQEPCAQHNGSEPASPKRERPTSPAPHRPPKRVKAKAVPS
Target sequence in this assay (Q96SW2 whole entry partner): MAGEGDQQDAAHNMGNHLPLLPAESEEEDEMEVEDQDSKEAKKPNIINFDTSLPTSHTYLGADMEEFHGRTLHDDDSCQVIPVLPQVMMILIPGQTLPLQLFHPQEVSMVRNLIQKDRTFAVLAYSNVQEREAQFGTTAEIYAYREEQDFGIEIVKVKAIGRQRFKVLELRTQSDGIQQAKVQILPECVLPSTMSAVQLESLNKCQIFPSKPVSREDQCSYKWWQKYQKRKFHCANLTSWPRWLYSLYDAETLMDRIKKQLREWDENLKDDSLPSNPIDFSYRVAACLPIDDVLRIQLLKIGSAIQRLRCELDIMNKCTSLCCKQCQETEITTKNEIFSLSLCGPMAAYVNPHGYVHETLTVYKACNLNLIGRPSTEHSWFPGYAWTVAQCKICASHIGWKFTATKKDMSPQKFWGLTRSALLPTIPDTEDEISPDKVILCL

SK-HEP1 [4] = test: Induction of apoptosis in human SK-HEP1 cells at 2.5 uM preincubated for 36 hrs followed by irradiation (3 Gy) by Annexin V-FITC/PI staining based flow cytometry; type: functional, cell-based
SK-HEP1 [5] = test: Effect of GBX2 mRNA expression in human SK-HEP1 cells at 2.5 uM incubated for 36 hrs by RNA sequencing analysis; type: functional, cell-based
SK-HEP1 [6] = test: Downregulation of ANKRD44 expression in human SK-HEP1 cells at 2.5 uM incubated for 36 hrs; type: functional, cell-based
[7] = molecular target: T1, Protein cereblon/NAD-dependent protein deacylase sirtuin-6; test: In vivo PROTAC activity of CRBN/SIRT6 in human SK-HEP1 cells xenografted in BALB/c nude mouse assessed as induction of SIRT6 degradation at 10 mg/kg treated for 28 to 30 days; type: functional, organism-based; details: time 28-30 day
Target sequence in this assay (Q8N6T7 2-355 limits assumed): as the sequence (Q8N6T7 2-355 limits assumed) above
Target sequence in this assay (Q96SW2 whole entry partner): as the sequence (Q96SW2 whole entry partner) above

SK-HEP1 [8] = test: Effect of genes related to DNA replication in human SK-HEP1 cells at 2.5 uM incubated for 36 hrs by GSEA analysis; type: functional, cell-based
[9] = Toxicity in BALB/c nude mouse xenografted with human SK-HEP1 cells assessed as histopathological abnormalities in lungs at 10 mg/kg treated for 28 to 30 days by H and E staining based analysis; type: organism-based; details: in vivo, time 28-30 day
[10] = molecular target: T1, Protein cereblon/NAD-dependent protein deacylase sirtuin-6; test: PROTAC activity at CRBN/SIRT6 in human SK-HEP1 cells assessed as induction of SIRT6 degradation at 2 uM incubated for 36 hrs by In-Cell ELISA relative to control; type: cell-based
Target sequence in this assay (Q8N6T7 2-355 limits assumed): as the sequence (Q8N6T7 2-355 limits assumed) above
Target sequence in this assay (Q96SW2 whole entry partner): as the sequence (Q96SW2 whole entry partner) above

[11] = Toxicity in BALB/c nude mouse xenografted with human SK-HEP1 cells assessed as histopathological abnormalities in spleen at 10 mg/kg treated for 28 to 30 days in presence of sorafenib by H and E staining based analysis; type: organism-based; details: in vivo, time 28-30 day
[12] = Toxicity in BALB/c nude mouse xenografted with human SK-HEP1 cells assessed as histopathological abnormalities in lungs at 10 mg/kg treated for 28 to 30 days under irradiation (3 Gy) by H and E staining based analysis; type: organism-based; details: in vivo, time 28-30 day
SK-HEP1 [13] = test: Synergistic antitumor activity against human SK-HEP1 cells xenografted in BALB/c nude mouse at 10 mg/kg treated for 28 to 30 days in presence of sorafenib relative to control; type: functional; details: time 28-30 day
SK-HEP1 [14] = test: Downregulation of NAIF1 expression in human SK-HEP1 cells at 2.5 uM incubated for 36 hrs; type: functional, cell-based
[15] = Toxicity in BALB/c nude mouse xenografted with human SK-HEP1 cells assessed as pathological damage in heart at 10 mg/kg treated for 28 to 30 days by H and E staining based analysis; type: organism-based; details: in vivo, time 28-30 day
[16] = Toxicity in BALB/c nude mouse xenografted with human SK-HEP1 cells assessed as histopathological abnormalities in heart at 10 mg/kg treated for 28 to 30 days by H and E staining based analysis; type: organism-based; details: in vivo, time 28-30 day
[17] = Toxicity in BALB/c nude mouse xenografted with human SK-HEP1 cells assessed as pathological damage in liver at 10 mg/kg treated for 28 to 30 days under irradiation (3 Gy) by H and E staining based analysis; type: organism-based; details: in vivo, time 28-30 day
[18] = molecular target: T1, Protein cereblon/NAD-dependent protein deacylase sirtuin-6; test: PROTAC activity at CRBN/SIRT6 in MLN4924-treated human SK-HEP1 cells assessed as induction of SIRT6 degradation at 2.5 uM treated for 36 hrs by Western blot analysis; type: cell-based
Target sequence in this assay (Q8N6T7 2-355 limits assumed): as the sequence (Q8N6T7 2-355 limits assumed) above
Target sequence in this assay (Q96SW2 whole entry partner): as the sequence (Q96SW2 whole entry partner) above

[19] = molecular target: T1, Protein cereblon/NAD-dependent protein deacylase sirtuin-6; test: PROTAC activity at CRBN/SIRT6 in human SK-HEP1 cells assessed as induction of SIRT6 degradation at 1 uM incubated for 24 to 36 hrs by Western blot analysis; type: cell-based; details: time 24-36 hrs
Target sequence in this assay (Q8N6T7 2-355 limits assumed): as the sequence (Q8N6T7 2-355 limits assumed) above
Target sequence in this assay (Q96SW2 whole entry partner): as the sequence (Q96SW2 whole entry partner) above

[20] = molecular target: T1, Protein cereblon/NAD-dependent protein deacylase sirtuin-6; test: PROTAC activity at CRBN/SIRT6 in human Huh-7 cells assessed as induction of SIRT6 degradation incubated for 36 hrs by Western blot analysis; type: cell-based
SK-HEP1 [21] = test: Effect of SAP18 mRNA expression in human SK-HEP1 cells at 2.5 uM incubated for 36 hrs by RNA sequencing analysis; type: functional, cell-based
[22] = molecular target: T1, Protein cereblon/NAD-dependent protein deacylase sirtuin-6; test: PROTAC activity at CRBN/SIRT6 in human U2OS cells with DNA repair assessed as inhibition of CHD4 loading onto chromatin incubated for 36 hrs by FACS analysis; type: cell-based
Target sequence in this assay (Q8N6T7 2-355 limits assumed): as the sequence (Q8N6T7 2-355 limits assumed) above
Target sequence in this assay (Q96SW2 whole entry partner): as the sequence (Q96SW2 whole entry partner) above

[23] = molecular target: T1, Protein cereblon/NAD-dependent protein deacylase sirtuin-6; test: PROTAC activity at CRBN/SIRT6 in human U2OS cells expressing EJ5 assessed as inhibition of SNF2H loading onto chromatin incubated for 36 hrs by FACS analysis; type: cell-based
[24] = molecular target: T1, Protein cereblon/NAD-dependent protein deacylase sirtuin-6; test: PROTAC activity at CRBN/SIRT6 in human SK-HEP1 cells assessed as reduction in number of SIRT6 foci incubated for about 36 hrs by immunofluorescence based analysis; type: cell-based; details: dose <= 5.0 µM
SK-HEP1 [25] = test: Inhibition of colony formation in human SK-HEP1 cells at 5 uM incubated for 10 to 14 days with replacement of medium containing compounds on every 3 days in presence of sorafenib by crystal violet staining based analysis; type: functional, cell-based; details: time 10-14 day
SK-HEP1 [26] = test: Antitumor activity against human SK-HEP1 cells xenografted in BALB/c nude mouse at 10 mg/kg treated for 28 to 30 days under irradiation (3 Gy) (reference value: 38.4 %); type: functional; details: time 28-30 day
[27] = molecular target: T1, Protein cereblon/NAD-dependent protein deacylase sirtuin-6; test: PROTAC activity at CRBN/SIRT6 in human Hep3B cells assessed as induction of SIRT6 degradation incubated for 24 hrs by Western blot analysis; type: cell-based
[28] = Toxicity in BALB/c nude mouse xenografted with human SK-HEP1 cells assessed as histopathological abnormalities in heart at 10 mg/kg treated for 28 to 30 days under irradiation (3 Gy) by H and E staining based analysis; type: organism-based; details: in vivo, time 28-30 day
[29] = molecular target: T1, Protein cereblon/NAD-dependent protein deacylase sirtuin-6; test: PROTAC activity at CRBN/SIRT6 in human SK-HEP1 cells assessed as increase in H3K9Ac level incubated for 36 hrs by Western blot analysis; type: cell-based; details: dose 0.002-1 µM
[30] = Toxicity in BALB/c nude mouse xenografted with human SK-HEP1 cells assessed as histopathological abnormalities in spleen at 10 mg/kg treated for 28 to 30 days by H and E staining based analysis; type: organism-based; details: in vivo, time 28-30 day
SK-HEP1 [31] = test: Effect on SIRT7 expression in human SK-HEP1 cells at 0.002 to 1 uM incubated for 36 hrs by Western blot analysis; type: functional, cell-based; details: dose 0.002-1 µM
[32] = molecular target: T1, Protein cereblon/NAD-dependent protein deacylase sirtuin-6; test: PROTAC activity at CRBN/SIRT6 in human SK-HEP1 cells assessed as induction of SIRT6 degradation at 2.5 uM incubated for 36 hrs by proteomic analysis; type: cell-based
[33] = Toxicity in BALB/c nude mouse xenografted with human SK-HEP1 cells assessed as pathological damage in heart at 10 mg/kg treated for 28 to 30 days under irradiation (3 Gy) by H and E staining based analysis; type: organism-based; details: in vivo, time 28-30 day

Nc1cc(N2CCN(CC3CCN(c4cc5c(cc4F)C(=O)N(C4CCC(=O)NC4=O)C5=O)CC3)CC2)ccc1[N+](=O)[O-] (centres undefined)
Activity (SK-HEP1 [1]): inactive
inhibition (SK-HEP1 [2]): Active
Activity [3]: Active
Activity (SK-HEP1 [4]): Active; Significant Effect Was Observed Before Being Exposed To Ir
Activity (SK-HEP1 [5]): Active
Activity (SK-HEP1 [6]): Active
Activity [7]: Active
Activity (SK-HEP1 [8]): Active
Activity [9]: Non-toxic
Activity [10]: 92.5%
Activity [11]: Non-toxic
Activity [12]: Non-toxic
T/C (SK-HEP1 [13]): 18.2%
Activity (SK-HEP1 [14]): Active
Activity [15]: Non-toxic
Activity [16]: Non-toxic
Activity [17]: Non-toxic
Activity [18]: inactive
Activity [19]: Active; Reached A Plateau After 36 Hrs Of Treatment, But A Dramatic Reduction Observed
DC50 [20]: 154 nM
Activity ([20]; dose 0.008-5 µM): Dose-dependent-effect; But Reduced Degradation Efficiency Observed
Activity (SK-HEP1 [21]): Active
inhibition [22]: Active; Results In Decrease In Hr And Nhej Efficiencies
inhibition [23]: Active; Results In Decrease In Hr And Nhej Efficiencies
Activity [24]: Dose-dependent-effect
inhibition (SK-HEP1 [25]): Not active; Exhibited Weaker Inhibition
T/C (SK-HEP1 [26]): 26.1%
Activity [27]: Active; Reached A Plateau After 36 Hrs Of Treatment
Activity [28]: Non-toxic
Activity [29]: Dose-dependent-effect
Activity [30]: Non-toxic
Activity (SK-HEP1 [31]): No effect
Activity [32]: Active
Activity [33]: Non-toxic
